The supplement of paper PMC13380429

What was measured:
Settings in all cases: 72 h
Calu-3 [1] = test: relative viability EC50 (midpoint between 100% and the lowest measured viability); higher = less toxic
HepG2 [2] = test: as above
Caco-2 [3] = test: as above
Calu-3 [4] = test: cell viability relative to DMSO; higher = less toxic
HepG2 [5] = test: as above
Caco-2 [6] = test: as above
Calu-3 [7] = test: drug sensitivity score (DSS) for viability; higher = more toxic; extreme values may be limits of the assay
HepG2 [8] = test: as above
Caco-2 [9] = test: as above
U2OS [10] = test: relative viability EC50 (midpoint between 100% and the lowest measured viability); higher = less toxic
Vero E6 [11] = test: cell viability relative to DMSO; higher = less toxic
U2OS [12] = test: as above
Vero E6 [13] = test: drug sensitivity score (DSS) for viability; higher = more toxic; extreme values may be limits of the assay
U2OS [14] = test: as above

SMILES	relative viability EC50 (Calu-3 [1])	relative viability EC50 (HepG2 [2])	relative viability EC50 (Caco-2 [3])	cell viability (Calu-3 [4]; 1 nM)	cell viability (Calu-3 [4]; 10 nM)	cell viability (Calu-3 [4]; 100 nM)	cell viability (Calu-3 [4]; 1000 nM)	cell viability (Calu-3 [4]; 10000 nM)	cell viability (HepG2 [5]; 1 nM)	cell viability (HepG2 [5]; 10 nM)	cell viability (HepG2 [5]; 100 nM)	cell viability (HepG2 [5]; 1000 nM)	cell viability (HepG2 [5]; 10000 nM)	cell viability (Caco-2 [6]; 1 nM)	cell viability (Caco-2 [6]; 10 nM)	cell viability (Caco-2 [6]; 100 nM)	cell viability (Caco-2 [6]; 1000 nM)	cell viability (Caco-2 [6]; 10000 nM)	drug sensitivity score (Calu-3 [7])	drug sensitivity score (HepG2 [8])	drug sensitivity score (Caco-2 [9])	relative viability EC50 (U2OS [10])	cell viability (Vero E6 [11]; 1 nM)	cell viability (Vero E6 [11]; 10 nM)	cell viability (Vero E6 [11]; 100 nM)	cell viability (Vero E6 [11]; 1000 nM)	cell viability (Vero E6 [11]; 10000 nM)	cell viability (U2OS [12]; 1 nM)	cell viability (U2OS [12]; 10 nM)	cell viability (U2OS [12]; 100 nM)	cell viability (U2OS [12]; 1000 nM)	cell viability (U2OS [12]; 10000 nM)	drug sensitivity score (Vero E6 [13])	drug sensitivity score (U2OS [14])
CN1C[C@@H]2CN(c3ccc(-c4ccccc4)nn3)C[C@@H]2C1	> 10 µM	> 10 µM	> 10 µM	90.3%	100%	97.6%	98.6%	91.6%	104%	97.3%	110%	98.9%	96%	105%	104%	101%	103%	99.5%	0	0	0													
CNc1cc2c(Nc3cccc(Br)c3)ncnc2cn1	0.47 µM		1.55 µM	101%	98.4%	93.9%	53.5%	37.7%	93.8%	105%	95.9%	100%	64.9%	102%	92.5%	91.2%	84.5%	49.7%	9.5	1.6	4.4	> 10 µM	92.4%	97.3%	88.4%	72.4%	53.1%	99.4%	97.6%	98.3%	92.2%	89.6%	6.2	0
COc1ccc(-c2ccc3c(N4CCOCC4)nc(N4C[C@@H](C)O[C@@H](C)C4)nc3n2)cc1CO																			10.1	7.2													4.6	5.1
c1ccc(N2CCN(Cc3nc4ccccc4[nH]3)CC2)nc1 [ABT-724]	> 10 µM	> 10 µM	> 10 µM	93.5%	105%	101%	104%	114%	92.4%	100%	99.2%	95.7%	106%	91.7%	99.8%	97.8%	100%	94%	0	0	0	> 10 µM						98.8%	103%	98.7%	104%	98.6%		0
C1Cc2[nH]nc(-c3nn[nH]n3)c2C1 [MK-0354]	> 10 µM	> 10 µM	> 10 µM	99.8%	92.7%	91.6%	112%	101%	102%	98%	95.6%	105%	95.4%	97%	91.1%	95.2%	88.9%	102%	0	0	0	> 10 µM						101%	96.2%	103%	96.7%	103%		0
COc1cc(S(C)(=O)=O)ccc1Nc1nc2ccc(-c3ccc(NC(=O)[C@H](C)c4ccc(F)cc4)cc3)cn2n1 [Mps1-IN-5]	> 10 µM	0.508 µM	> 10 µM	101%	94.6%	94.6%	101%	91.8%	106%	108%	106%	56.2%	49.2%	97.7%	96.4%	103%	78.2%	87.4%	0	7.9	2.9		101%	97%	95.2%	66.4%	71.5%	99.9%	99.6%	94.2%	66.7%	70.6%	6.6	6.7
CC#CC(=O)N1CC[C@@H](n2c(=O)n(-c3ccc(Oc4ccccc4)cc3)c3c(N)ncnc32)C1 [ONO-4059]	0.121 µM	> 10 µM		91.2%	96.7%	73.6%	36%	41.3%	96.7%	99.3%	89.6%	102%	101%	97.6%	87%	93.9%	73.8%	73.7%	14.8	0	4.4	> 10 µM	89.5%	97.4%	90.7%	80.2%	68.2%	101%	91.4%	103%	92.5%	93.6%	3.9	0
Nc1cc(F)ccc1NC(=O)/C=C/c1cnn(C/C=C/c2ccccc2)c1 [RGFP966]			> 10 µM	99.3%	106%	89.2%	87.6%	51.4%	93.2%	105%	96.4%	87.2%	52.4%	100%	98.9%	92.6%	91.2%	76.7%	4.1	4.4	1.4		104%	106%	105%	95.9%	66.2%	92.9%	104%	92.2%	89.5%	68.6%	2.2	2.2
COc1cc2c(NC3CCN(CC4CCCCC4)CC3)nc(N3CCCN(C(C)C)CC3)nc2cc1OCCCN1CCCCC1 [UNC0631]	3.36 µM	2.89 µM	> 10 µM	103%	97.2%	104%	103%	18.9%	104%	111%	100%	96.3%	0.2%	97.7%	104%	103%	84.4%	83.2%	4.3	6.1	1.6		93.4%	97.1%	88.6%	93%	50.9%	102%	102%	102%	98.7%	74.2%	3.8	1.2
Cn1c(=O)c2c(ncn2C)n(C)c1=O [caffeine]																			0	0													0	0
O=C(O)c1cc(=O)c2ccccc2o1 [chromocarb]	> 10 µM	> 10 µM	> 10 µM	81.8%	93.2%	86.8%	103%	93.7%	114%	106%	114%	98.5%	110%	99.8%	109%	104%	110%	108%	0	0	0													
CN1C[C@@H]2C[C@H]1CN2c1cc2c(cc1F)c(=O)c(C(=O)O)cn2C1CC1 [danofloxacin]																			0	0													0	0
O=P1(NCCCl)OCCCN1CCCl (stereo not given) [ifosfamide]	> 10 µM	> 10 µM	> 10 µM	95.2%	104%	97.7%	95.5%	88.7%	107%	98.1%	95.9%	102%	109%	104%	107%	94.1%	95.4%	101%	0	0	0													
C[C@@H](O)[C@H]1C(=O)N2C(C(=O)O)=C(S[C@@H]3CN[C@H](C(=O)N(C)C)C3)[C@H](C)[C@H]12 [meropenem]	> 10 µM		> 10 µM	96.1%	109%	88.9%	104%	98.5%						83.8%	99.6%	91.3%	111%	84.3%	0		0.1	> 10 µM						101%	102%	99.9%	104%	102%		0
CNC(=O)c1cc(Oc2ccc(NC(=O)Nc3ccc(Cl)c(C(F)(F)F)c3)c(F)c2)ccn1 [regorafenib]		1.03 µM		102%	98.8%	105%	104%	74.2%	102%	106%	94.4%	59.8%	16.5%	100%	105%	97%	108%	66.3%	0.8	9.3	1.2		94.7%	98.9%	104%	102%	60.6%	96.9%	103%	100%	99.8%	54.5%	1.8	2.4
CC(C)(C)NCC(O)COc1ccc(NC(=O)NC2CCCCC2)cc1 (stereo not given) [talinolol]																			0	0													0	0
